Reference: US6727237B2, “Inhibitors of bacterial NAD synthetase” (priority 1998, dated 2004)
In brackets after ≈: the same amount, converted by molar mass. Several values for one entry are separate records, joined by “and”; a condition that tells them apart may be missing. Identical values can stand only once. Like-named read-outs stand apart in the source and are kept apart here.

How the values were obtained:
[1] = system: Staphylococcus epidermitis; assay: Bacterial growth inhibition screen in LB media (absorbance 595 nm), percent inhibition; conditions: for % Inhibition: S. epidermitis; for inhibition of growth at 10 µM: Staphylococcus, read-out: % Inhibition, S. epidermitis
[2] = molecular target: T1, bacterial NAD synthetase enzyme (Bacillus subtilis, UniProt P08164); assay: biochemical; type: biochemical
T1 sequence (P08164 2-272 limits assumed): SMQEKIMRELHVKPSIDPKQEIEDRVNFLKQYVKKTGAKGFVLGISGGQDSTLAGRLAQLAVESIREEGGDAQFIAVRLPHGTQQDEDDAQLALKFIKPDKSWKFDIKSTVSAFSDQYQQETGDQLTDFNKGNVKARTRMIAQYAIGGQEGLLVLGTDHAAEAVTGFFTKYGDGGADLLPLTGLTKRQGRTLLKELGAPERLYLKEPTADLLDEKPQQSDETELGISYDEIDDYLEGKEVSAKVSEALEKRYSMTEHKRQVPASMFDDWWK

[3] = system: Staphylococcus epidermitis; assay: Dose response of bacterial growth inhibition, MIC85; conditions: for MIC85: minimum inhibitory concentration to achieve 85% inhibition, S. epidermitis; for MIC: Staphylococcus, read-out: MIC85
[4] = compound at 0.2 mM (Table 312A)
[5] = lead compounds (Table 318A), read-out: IC 50

Row | Compound | % Inhibition ([1]; concentration screened 10 uM) | MIC85 [3] [µM] | % Inhibition [2, 4] [%] | % Inhibition ([1]; concentration screened 100 uM) [%] | further results
1 | COC(=O)c1ccc[n+](CCCCCCCn2ccc3cc([N+](=O)[O-])ccc32)c1 [Compound 12] | 99.22% and 95.73% | 30 | – | – | % Inhibition ([2]; compound at 0.1 mM (Table 314)): 62.22%
2 | COC(=O)c1ccc[n+](CCCCCCCCn2ccc3cc([N+](=O)[O-])ccc32)c1 [Compound 13] | – | – | – | – | inhibition of growth at 10 µM ([1]; concentration screened 10 uM): 98.5%; IC50 [2]: 50 µM; inhibition at 200 µM [2]: 80.8%; MIC [3]: 30 µM
3 | COC(=O)c1ccc[n+](CCCCCCCCCn2ccc3cc([N+](=O)[O-])ccc32)c1 [Compound 14] | 98.58% and 96.19% | 10 | 78.85 | – | –
4 | COC(=O)c1ccc2c(ccn2CCCCCCCCC[n+]2cc(C(=O)OC)cc3ccccc32)c1 [Compound 174] | – | – | – | – | inhibition of growth at 10 µM ([1]; concentration screened 10 uM): 98.7%; IC50 [2]: 40 µM; MIC [3]: 10 µM
5 | COC(=O)C=Cc1cn(CCCCCCC[n+]2ccccc2)c2ccccc12 [Compound 261] | 92.51% | 30 | – | – | –
6 | COc1ccc2[nH]c(CCC[n+]3ccccc3)cc2c1 [Compound 372] | 67.34% | 30 | – | – | –
7 | COc1ccc2[nH]c(CCCCCCCC[n+]3ccc4ccccc4c3)cc2c1 [Compound 593] | – | – | 60.19 | 100.00 | –
8 | COC(=O)c1ccc2[nH]c(CCCCC[n+]3ccc4ccccc4c3)cc2c1 [Compound 596] | – | – | 56.49 | 96.36 | –
9 | COC(=O)c1ccc2[nH]c(CCCCCCC[n+]3ccc4ccccc4c3)cc2c1 [Compound 598] | 8.86% | – | 43.33 | – | –
10 | COC(=O)c1ccc2[nH]c(CCCCCCCC[n+]3ccc4ccccc4c3)cc2c1 [Compound 599] | – | – | 19.31 | 44.14 | –
11 | O=C(O)c1ccc2[nH]c(CCCCCC[n+]3ccc4ccccc4c3)cc2c1 [Compound 603] | 1.60% | – | 51.72 | – | –
12 | O=C(O)c1ccc2[nH]c(CCCCCCCC[n+]3ccc4ccccc4c3)cc2c1 [Compound 605] | – | – | 68.65 | 44.29 | –
13 | CN(C)c1ccc(C(=O)OCCCCCCCCc2cc3cc(C(F)(F)F)ccc3[nH]2)cc1 [Compound 611] | – | – | 15.13 | 9.67 | –
14 | O=C(OCCCCCCCCc1cc2cc(C(F)(F)F)ccc2[nH]1)c1ccccc1-c1ccccc1 [Compound 614] | – | – | 8.32 | 20.35 | –
15 | CN(C)c1cccc(C(=O)OCCCCCCCCc2cc3cc(Oc4ccccc4)ccc3[nH]2)c1 [Compound 617] | – | – | 2.02 | 19.54 | –
16 | CN(C)c1ccc(C(=O)OCCCCCCCCc2cc3cc(Oc4ccccc4)ccc3[nH]2)cc1 [Compound 620] | – | – | 19.03 | 12.69 | –
17 | CC(C)c1ccc2[nH]c(CCCCOC(=O)c3ccc(N(C)C)cc3)cc2c1 [Compound 627] | – | – | 11.19 | 20.10 | –
18 | CC(C)c1ccc2[nH]c(CCCCOC(=O)c3ccccc3-c3ccccc3)cc2c1 [Compound 630] | – | – | 10.72 | 13.69 | –
19 | CC(=O)c1ccc2[nH]c(CCCCOC(=O)c3ccc(N(C)C)cc3)cc2c1 [Compound 636] | – | – | 17.36 | 6.72 | –
20 | CN(C)c1ccc(C(=O)OCCCCc2cc3cc(C(=O)c4ccccc4)ccc3[nH]2)cc1 [Compound 645] | – | – | 4.31 | 9.23 | –
21 | O=C(c1ccccc1)c1ccc2[nH]c(CCCCOC(=O)c3ccccc3-c3ccccc3)cc2c1 [Compound 648] | – | – | 5.82 | 14.57 | –
22 | O=C(OCCCCCCCCc1cc2cc(C(F)(F)F)ccc2[nH]1)C(c1ccccc1)c1ccccc1 [Compound 653] | – | – | 20.59 | 8.42 | –
23 | O=C(OCCCCc1cc2cc(C(F)(F)F)ccc2[nH]1)c1cccnc1 [Compound 654] | 25.20% | – | 2.11 | – | –
24 | O=C(OCCCCCCCCc1cc2cc(Oc3ccccc3)ccc2[nH]1)C(c1ccccc1)c1ccccc1 [Compound 659] | – | – | 25.47 | 20.41 | –
25 | O=C(OCCCCCCCCc1cc2cc(Oc3ccccc3)ccc2[nH]1)c1cccnc1 [Compound 662] | 3.27% | – | 8.39 | – | –
26 | CC(C)c1ccc2[nH]c(CCCCOC(=O)C(c3ccccc3)c3ccccc3)cc2c1 [Compound 663] | – | – | 15.43 | 44.28 | –
27 | CC(=O)c1ccc2[nH]c(CCCCCCCOC(=O)C(c3ccccc3)c3ccccc3)cc2c1 [Compound 670] | 5.59% | – | – | – | % Inhibition ([2]; compound at 0.1 mM (Table 314)): 4.65%

Row | Compound | % Inhibition ([1]; concentration screened 10 uM) | MIC85 [3] [µM] | % Inhibition [2, 4] [%] | % Inhibition ([1]; concentration screened 100 uM) [%] | further results
28 | CC(=O)c1ccc2[nH]c(CCCCOC(=O)c3cccnc3)cc2c1 [Compound 672] | 1.57% | – | 2.63 | – | –
29 | CC(=O)c1ccc2[nH]c(CCCCCCCOC(=O)c3cccnc3)cc2c1 [Compound 673] | 1.50% | – | 1.81 | – | –
30 | O=C(c1ccccc1)c1ccc2[nH]c(CCCCCCCOC(=O)C(c3ccccc3)c3ccccc3)cc2c1 [Compound 676] | 5.52% | – | – | – | % Inhibition ([2]; compound at 0.1 mM (Table 314)): 1.46%
31 | O=C(OCCCCCCCc1cc2cc(Oc3ccccc3)ccc2[nH]1)c1ccncc1 [Compound 700] | 3.61% | – | 2.54 | – | –
32 | COc1ccc2c(ccn2CCCCOC(=O)Cc2ccc([N+](C)(C)C)cc2)c1 [Compound 740] | 5.17% | – | 7.23 | – | –
33 | COc1ccc2c(ccn2CCCCCCOC(=O)Cc2ccc([N+](C)(C)C)cc2)c1 [Compound 742] | 2.13% | – | 28.20 | – | –
34 | C[n+]1cccc(C(=O)OCCCCn2ccc3cc(OCc4ccccc4)ccc32)c1 [Compound 765] | – | – | – | – | inhibition of growth at 10 µM ([1]; concentration screened 10 uM): 9.31%; inhibition at 100 µM [2]: 90%; IC50 [2, 5]: 90 µM
35 | COc1ccc2c(ccn2CCCCCCCCOC(=O)c2cccc([N+](C)(C)C)c2)c1 [Compound 804] | 97.29% | 30 | – | – | –
36 | C[N+](C)(C)c1cccc(C(=O)OCCCCCCn2ccc3cc(OCc4ccccc4)ccc32)c1 [Compound 807] | 97.22% | 10 | – | – | –
37 | C[N+](C)(C)c1cccc(C(=O)OCCCCCCCn2ccc3cc(OCc4ccccc4)ccc32)c1 [Compound 808] | 98.06% | 30 | – | – | –
38 | C[N+](C)(C)c1cccc(C(=O)OCCCCCCCCn2ccc3cc(OCc4ccccc4)ccc32)c1 [Compound 809] | 99.81% | 10 | – | – | –
39 | COc1ccc2c(ccn2CCCCCOC(=O)c2cc3ccccc3[n+](C)c2)c1 [Compound 821] | 95.02% | 30 | – | – | –
40 | COc1ccc2c(ccn2CCCCCCCOC(=O)c2cc3ccccc3[n+](C)c2)c1 [Compound 823] | 97.03% | 10 | – | – | –
41 | COc1ccc2c(ccn2CCCCCCCCOC(=O)c2cc3ccccc3[n+](C)c2)c1 [Compound 824] | 97.67% | 3.7 | – | – | –
42 | C[n+]1cc(C(=O)OCCCCCn2ccc3cc(OCc4ccccc4)ccc32)cc2ccccc21 [Compound 826] | 92.57% | 3.7 | – | – | –
43 | C[n+]1cc(C(=O)OCCCCCCn2ccc3cc(OCc4ccccc4)ccc32)cc2ccccc21 [Compound 827] | 95.86% | 3.7 | – | – | –
44 | O=C(OCCCCCCCn1ccc2cc([N+](=O)[O-])ccc21)c1cnc2ccccc2c1 [Compound 833] | 98.00% | 10 (≈ 4.31 µg/mL) | – | – | –
45 | O=C(OCCCCCCCCn1ccc2cc([N+](=O)[O-])ccc21)c1cnc2ccccc2c1 [Compound 834] | 98.13% | 3.7 (≈ 1.65 µg/mL) | – | – | –
46 | O=C(OCCCCCCCCCn1ccc2cc([N+](=O)[O-])ccc21)c1cnc2ccccc2c1 [Compound 835] | 99.03% | 3.7 (≈ 1.7 µg/mL) | – | – | –
47 | CN(C)c1cccc(C(=O)OCCCCCCCn2ccc3cc([N+](=O)[O-])ccc32)c1 [Compound 839] | 99.35% | 30 (≈ 12.7 µg/mL) | – | – | –
48 | CN(C)c1cccc(C(=O)OCCCCCCCCn2ccc3cc([N+](=O)[O-])ccc32)c1 [Compound 840] | 98.77% | 10 (≈ 4.38 µg/mL) | – | – | –
49 | CN(C)c1cccc(C(=O)OCCCCCCCCCn2ccc3cc([N+](=O)[O-])ccc32)c1 [Compound 841] | 98.90% | 10 (≈ 4.52 µg/mL) | – | – | –
50 | CN(C)c1ccc(CC(=O)OCCCCCCn2ccc3cc([N+](=O)[O-])ccc32)cc1 [Compound 850] | 56.50% | – | – | – | % Inhibition ([2]; compound at 0.1 mM (Table 314)): 87.46%; IC50 [2, 5]: 80 µM
51 | CN(C)c1ccc(CC(=O)OCCCCCCCn2ccc3cc([N+](=O)[O-])ccc32)cc1 [Compound 851] | 98.90% | 30 (≈ 13.1 µg/mL) | – | – | –
52 | CN(C)c1ccc(CC(=O)OCCCCCCCCn2ccc3cc([N+](=O)[O-])ccc32)cc1 [Compound 852] | 98.58% | 30 (≈ 13.5 µg/mL) | – | – | –
53 | O=[N+]([O-])c1ccc2c(ccn2CCCCCCO)c1 [Compound 862, 6-[N-(5-nitroindolyl)]hexan-1-ol] | 48.29% | – | 9.05 | – | –
54 | C[n+]1cccc(C(=O)OCCCCCCn2ccc3cc([N+](=O)[O-])ccc32)c1 [Compound 865] | 50.42% and 48.55% | – | 46.43 | 94.40 | –
